Data reported in publication PMC6934184, “Selective DNA-PKcs inhibition extends the therapeutic index of localized radiotherapy and chemotherapy” (The Journal of Clinical Investigation, 2019).

Molecular target: T1, NLK (Homo sapiens, UniProt Q9UBE8)
T1 construct: purchased Thermo Fisher Scientific (Life Technologies) SelectScreen
Assay: SelectScreen LanthaScreen
Format: binding
Conditions: read-out: % displacement
How it was run: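 NU5455 was profiled across the SelectScreen Broad panel of kinase activity and binding assays. Z'LYTE reactions such as CSF1R ran at apparent Km ATP, while the Adapta CAMK1 assay used ATP listed as 10. Values are given as percent.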

T1 sequence (Q9UBE8 whole entry): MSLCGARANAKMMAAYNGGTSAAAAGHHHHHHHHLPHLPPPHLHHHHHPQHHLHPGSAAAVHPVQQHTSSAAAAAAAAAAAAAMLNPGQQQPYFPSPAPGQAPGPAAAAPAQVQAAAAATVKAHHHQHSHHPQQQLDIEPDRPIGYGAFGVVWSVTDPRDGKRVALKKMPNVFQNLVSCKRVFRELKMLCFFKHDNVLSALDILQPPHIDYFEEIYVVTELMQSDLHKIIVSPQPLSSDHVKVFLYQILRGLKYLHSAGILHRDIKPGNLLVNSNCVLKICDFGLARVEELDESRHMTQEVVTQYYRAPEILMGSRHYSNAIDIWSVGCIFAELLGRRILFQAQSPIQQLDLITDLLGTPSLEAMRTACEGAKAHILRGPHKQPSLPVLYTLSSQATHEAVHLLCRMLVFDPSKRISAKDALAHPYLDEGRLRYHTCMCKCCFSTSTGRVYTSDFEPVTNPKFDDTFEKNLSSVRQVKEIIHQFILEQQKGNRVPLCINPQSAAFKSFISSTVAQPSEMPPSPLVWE

## CN(C(=O)CN1CCOCC1)c1ccc2sc3c(-c4cccc5c(=O)cc(N6CC7CCC(C6)O7)oc45)cccc3c2c1 [NU5455]
  inhibition at 1 µM: 4.7%
